Data on nine compounds can be found in patent US4885301A, “Purinone derivatives which have bronchodilator, vasodilator and anti-allergic activities” (Smith Kline & French Laboratories Limited, priority 1987, dated 1989).

Assay [1] relates to guinea-pig isolated trachea. Briefly: Anti-allergic activity in vitro: ovalbumin-induced contraction of isolated trachea from sensitized guinea pigs. The arrangement: species or system guinea pig (male Hartley). The following applies: for activity at 100 µM / Emax at 100 µM: Cavia porcellus, mean ± S.E.; for activity at 100 µM: 0.2 h, 30 min pretreatment, 12 minutes after OA (0.1 μg/ml), decline P<0.05, read-out: OA-induced contractile force as percentage of vehicle-treated control; for Emax at 100 µM: prior to OA challenge, N=4, read-out: reduction of basal tone, as a percentage of the maximum response to carbachol; for inhibition of antigen-induced contraction (in words): guinea-pig isolated trachea, 100 μM. As to the method: The animals were injected intramuscularly with 0.7 ml of a 5.0% OA solution prepared in isotonic saline. Four weeks after sensitization tracheas were removed and cut into spiral strips. Each trachea was cut half, placed in 10-ml water-jacketed tissue baths and attached with biological tissue clips via silk suture to force displacement transducers for recording isometric tension. One half of each trachea served as a control for the corresponding drug-treated tissue. […] The tissue preparations were placed under 2 g passive tension and equilibrated for 60 minutes, during which time they were washed every 15 minutes with fresh buffer. Each tissue was pretreated for 45 minutes with meclofenamic acid (1 μM).
Tissues were pretreated with the compound under test (100 μM), or vehicle (0.4 mM NaOH) for 30 minutes prior to the addition of OA. OA (0.1 μg/ml) was added to all tissues and the contraction was monitored for 15 minutes. […] To evaluate effects of the test compounds, the degree of contraction was calculated 2 and 12 minutes after the addition of OA. OA-induced contraction of drug-treated tissues was expressed as a percentage of the response of vehicle-treated, paired controls.
Results are expressed as a mean ±S.E. of 4 experiments. Statistical significance of differences between the means of control and drug-treated groups was determined using a paired Student's t test.

Assay [2] concerns U46619-induced bronchoconstriction. Put plainly: Bronchodilatation in vivo: U46619-induced bronchoconstriction in anaesthetised guinea-pigs. As to conditions: Cavia porcellus, iv; i.v. bolus; U46619 infused i.v. 2.5 nmol/min; peak inhibition; read-out: BD50 (dose required to reduce the U46619-induced bronchoconstriction by 50%). The arrangement: species or system guinea-pig (male Dunkin Hartley). As to the method:
Male guinea-pigs of the Dunkin Hartley strain (500-600 g) were anaesthetised with Sagatal (pentobarbital sodium) (60 mg/kg).
The dose of compound required to reduce the U46619-induced bronchoconstriction by 50% is given as the BD50.

Assay [3] concerns antigen-induced bronchoconstriction. Briefly: Anti-allergic activity in vivo: ovalbumin-induced bronchoconstriction in sensitized anesthetized guinea pigs. As to conditions: 100 μmol/kg intraduodenal. Also noted: species or system guinea pig (adult male albino Hartley). The protocol:
Adult male albino Hartley strain guinea pigs weighing 400-600 g were actively sensitized to OA according to the procedure hereinbefore described. To measure pulmonary mechanics, a polyethylene catheter was inserted into the trachea of anesthetized (sodium pentobarbital, 35 mg/kg, i.p.) animals and airflow was measured via a heated pneumotachograph in combination with a differential pressure transducer connected to the pneumotachograph. Airflow and transpulmonary pressure signals were fed into an on-line pulmonary mechanics computer which integrated the flow signal to obtain tidal volume. Total pulmonary resistance (RL) and dynamic lung compliance (CDYN) were calculated at isovolumetric points according to the method of Amdur and Mead (Am. J. Physiol. 192:364-368, 1958).
A compound under test was dissolved in 25 mM NaHCO3 plus one drop of polyethylene glycol 400 to a concentration of 100 mM. Based on the weight of the animal, the appropriate amount of solution was removed and the volume brought up to 1 ml with 25 mM NaHCO3. For the intraduodenal administration of test compounds, a small midline incision was made in the abdomen, the duodenum was exposed, and a butterfly needle attached to plastic tubing was inserted. All solutions were adjusted to the same volume (1 ml) and administered through the butterfly needle and followed with 0.5 ml of distilled water. The needle was then removed and the abdominal incision was stapled to prevent heat loss.
Aerosols of OA were generated to deliver approximately 0.375 μl/breath. Pressure, flow rate and sensitivity were set such that a maximum pleural pressure of 20 cm water was attained during inhalation. One hour after the administration of the test compounds, quinea pigs were challenged with 5 inhalations of OA (0.5 mg/ml) via the tracheal cannula and changes in CDYN and RL were monitored for 10 minutes. […]
Results are expressed as a mean ± S.E. of 4 experiments. Statistical significance of differences between the means of control and drug-treated groups was determined using a unpaired Student's t test.

For assay [4], the system named is hindquarter vascular resistance. Put plainly: Vasodilatation in vivo: hindquarter blood flow in anaesthetised rats. Also noted: species or system rat (male Wistar). As to conditions: Rattus norvegicus, iv, bolus i.v., read-out: EDHQ50 (dose required to produce a 50% increase in hindquarter blood flow). The protocol:
Male Wistar rats (300 g) were anaesthetised with a sodium 5-ethyl-5-(1-methylpropyl)-2-thiobarbiturate/sodium pentobarbitone mixture i.p. (62.5 and 22.5 mg/kg respectively). The trachea was cannulated and the rats breathed spontaneously air enriched with O2 (5 ml/min). Blood pressure was recorded from a carotid artery and a jugular vein was cannulated for the administration of compounds. The temperature of the animal was maintained at 37° C. by the use of an electric blanket. […] The perfusion circuit was primed with 5% bovine serum albumin dissolved in 0.9% sodium chloride solution, pH adjusted to 7.4. Initially the pump rate was set between 10 and 15 ml/min to match the hind quarter perfusion pressure to that of the systemic circulation. Once set the pressure remained unaltered for the rest of the experiment. A change in the speed of the pump (equivalent to hindquarter blood flow) was used to assess the changes in hindquarter vascular resistance.
All compounds were administered as a bolus i.v. and from the dose response curves the dose required to produce a 50% increase in hindquarter blood flow (EDHQ50) was determined in μmoles/kg.

The target in assay [5] is T1, calmodulin insensitive cyclic GMP phosphodiesterase (Sus scrofa, UniProt A0A287B475).
T1 construct: Following dissection arteries were flash frozen in liquid nitrogen; from tissue; host or cells: pig pulmonary arteries or aortas, partially purified on DEAE-Sepharose, calmodulin-agarose and cibacron blue-agarose
Put plainly: Inhibition of phosphodiesterase (PDE), cyclic GMP hydrolysis. It counts as biochemical, pig. The following applies: 1 μM cyclic GMP, pH 7.5, 37° C. The protocol:
(§1) Eight pig hearts/lungs were collected from the abattoir and kept on ice until the pulmonary arteries or aortas could be dissected and excess fat removed. 120 g of tissue was dissected. Unless otherwise stated all procedures were done at 4° C. Following dissection arteries were flash frozen in liquid nitrogen and stored at -70° C. until required. On the day of homogenisation, tissue was cooled with liquid nitrogen and broken into small pieces by striking with a hammer. The tissue was then homogenised in 15 mM BIS-TRIS, 1 μg/ml leupeptin and antipain, 2 μg/ml pepstatin A, 5 μM benzamidine, 2 mM EDTA (ethylenediaminetetraacetic acid) and 2 mM dithiothreitol, pH 6.5. Phenylmethanesulphonylfluoride (PMSF) was added to a final concentration of 50 μM just prior to homogenisation. The homogenate was then centrifuged for 20 minutes at 30,000 g. Supernatant was filtered firstly through glass wool and then a 0.45 μm filter. […] The column was washed with 150 mls of homogenisation buffer and PDE activities eluted with 150 ml of homogenisation buffer containing 100 mM sodium acetate. Six 25 ml fractions were collected, the flow rate throughout was 80 ml/hr.
Fractions 2 and 3 were pooled and BIS-TRIS, MgCl2, CaCl2 added to final concentrations of 50 mM, 7 mM and 5 mM respectively. PMSF, leupeptin, antipain and pepstatin A were also added at the concentrations described above for these components. The pH of this pooled sample was corrected to 6.9.
The sample was applied, at a flow rate of 3 ml/hr, to a tandem column set up. The first column in the tandem was a 5 ml calmodulin-agarose column (Sigma) and the second a 1.5 ml cibacron blue 3GA-agarose column (Sigma). Both columns were pre-equilibrated with 50 mM BIS-TRIS, 5 mM MgCl2, 5 mM CaCl2, 5 mM benzamidine, 2 mM dithiothreitol pH 6.9. Following application of the sample the columns were washed with 20 ml of equilibration buffer.
The cibacron blue-agarose column was then disconnected and washed with a variety of buffers as indicated below (Buffer A=50 mM BIS-TRIS, 5 mM benzamidine, 2 mM dithiotheitol pH 7.0).
20 ml Buffer A+2M NaCl, 5 mM MgCl2
20 ml Buffer A+2M NaCl, 10 mM EDTA
PDE activity bound to the column was eluted with eight 2.5 ml aliquots of Buffer A containing 2M NaCl, 10 mM EDTA and 10 mM cGMP. Fractions found to contain PDE activity were pooled and concentrated to approximately 1/3 the original volume by dialysis for 2 hr against Buffer A:glycerol (50:50) containing 15 mM 2-mercaptoethanol, 2 mM EDTA. After dialysis the concentration of cGMP in the fraction was reduced by treatment using a PD-10 column (Pharmacia) using dialysis buffer.
The fraction produced was stored at -20° C. and for experiments diluted 50-fold and used as the source of PDE activity for the assay of compounds.
The standard reaction mixture contained, in a final volume of 100 μl,
1 μM 3', 5'-cGMP (including 0.1 μCi ^3 H-cGMP)
and buffered with 50 mM TRIS/5 mM MgCl2 pH 7.5. The reaction was initiated with enzyme, and was carried out at 37° C. for 5-10 minutes. The reaction was terminated by placing tubes in a boiling water bath for 2 minutes. […] Unreacted ^3 H-cGMP was washed from the column with 10×1 ml HEPES/NaCl buffer. Labelled […] was eluted into a scintillation vial with 6 ml 0.25M acetic acid and counted in a scintillation counter using 10 ml Instagel (Packard). […] Assays were performed in duplicate and values corrected for blanks of <2%.

The subject of assay [6] is PDE activity isolated from pig pulmonary arteries or aortas. Briefly: Properties of PDE activity: substrate kinetics. In kind it is biochemical. As to the method:
as §1
Fractions 2 and 3 were pooled and BIS-TRIS, MgCl2, CaCl2 added to final concentrations of 50 mM, 7 mM and 5 mM respectively. PMSF, leupeptin, antipain and pepstatin A were also added at the concentrations described above for these components. […]

On to `CCCOc1ccccc1-c1nc2nc[nH]c2c(=O)[nH]1` [Example 1, 2-(2-Propoxyphenyl)-6-purinone], for which, in assay [1], the activity at 100 µM came out at 46 ± 9%, the Emax at 100 µM came to 17 ± 3% and the “inhibition of antigen-induced contraction (in words)” value is “inhibit antigen-induced contraction of the guinea-pig isolated trachea”. Also, the ED50 in assay [2] was determined as 3.6 µmol/kg. The “antigen-induced bronchoconstriction (in words)” value in assay [3] (60 minutes before OA challenge, N=4) is recorded as “significantly reduced antigen-induced bronchoconstriction”. Moreover, the “increase in total pulmonary resistance (RL) after OA challenge” value in assay [3] (60 minutes before OA, 5 minutes after challenge, N=4, mean ± S.E., P<0.05 vs. vehicle (vehicle 162±40%)) was 51±26%. In addition, in assay [3] (60 minutes before OA, 5 minutes after challenge, P<0.01 vs. vehicle), the “dynamic lung compliance (CDYN) after OA challenge (in words)” value is “unchanged from baseline”. For the same compound, the ED50 in assay [4] is 10.8 µmol/kg.
With `CCOc1ccccc1-c1nc2nc[nH]c2c(=O)[nH]1` [Example 2, 2-(2-Ethoxyphenyl)-6-purinone], it took 4.49 µM to reach half-maximal inhibition in assay [5] (IC50). Moreover, the ED50 in assay [2] amounted to 6.5 µmol/kg.
For `CCCCOc1ccccc1-c1nc2nc[nH]c2c(=O)[nH]1` [Example 3, 2-(2-Butoxyphenyl)-6-purinone] the same measures were 5.04 µM and 3.8 µmol/kg.
For `CC(C)COc1ccccc1-c1nc2nc[nH]c2c(=O)[nH]1` [Example 4, 2-(2-Isobutoxyphenyl)-6-purinone], the IC50 (commonly the concentration that gives 50% inhibition) in assay [5] amounted to 1.74 µM. For the same compound, in assay [2], the ED50 was 5.3 µmol/kg.
In the case of `CCCOc1ccccc1-c1nc2[nH]c(=O)[nH]c2c(=O)[nH]1` [Example 5, 2-(2-Propoxyphenyl)purine-6,8-dione], in assay [1], the activity at 100 µM came out at 60 ± 4%, the Emax at 100 µM amounted to 24 ± 7% and the “inhibition of antigen-induced contraction (in words)” value was “inhibit antigen-induced contraction of the guinea-pig isolated trachea”. For the same compound, the IC50 in assay [5] stood at 1.25 µM. The ED50 in assay [2] came out at 1 µmol/kg. The ED50 in assay [4] stood at 3.7 µmol/kg.
For `CCOc1ccccc1-c1nc2[nH]c(=O)[nH]c2c(=O)[nH]1` [Example 7, 2-(2-Ethoxyphenyl)purine-6,8-dione], the IC50 in assay [5] was found to be 5.26 µM. The ED50 in assay [2] was found to be 3.6 µmol/kg.
In assay [5], `CCCCOc1ccccc1-c1nc2[nH]c(=O)[nH]c2c(=O)[nH]1` [Example 8, 2-(2-Butoxyphenyl)purine-6,8-dione] yielded an IC50 of 6.79 µM. Further, the ED50 in assay [2] came out at 1.5 µmol/kg.
As for `CC(C)COc1ccccc1-c1nc2[nH]c(=O)[nH]c2c(=O)[nH]1` [Example 9, 2-(2-Isobutoxypheny)purine-6,8-dione], in assay [5], half-maximal inhibition (IC50) required 3.64 µM. Also, the ED50 in assay [2] was found to be 4.5 µmol/kg.
In the case of `Nc1nc2c(ncn2[C@@H]2O[C@@H]3COP(=O)(O)O[C@H]3[C@H]2O)c(=O)[nH]1` [cGMP], the “Ratio of cGMP/cAMP hydrolysis” value in assay [6] (1 μM substrate) came to 30. In assay [6] (substrate of the isolated PDE), the Km (usually the substrate concentration at which the rate is half of its maximum) was 1.3 µM.
